From US11053234B2 (GlaxoSmithKline Intellectual Property Development Limited, priority 2016, dated 2021) come the findings set out here.

This assay has as its target T1, haematopoietic prostaglandin D synthase (H-PGDS) (Homo sapiens, UniProt O60760).
T1 construct: Full length human H-PGDS cDNA (Invitrogen Ultimate ORF 10H13026) was amplified by PCR; 6-His (N); TEV protease cleavage site (N); made in house; host or cells: E. coli BL21 (DE3*), vector pET22b+
Put plainly: H-PGDS RapidFire high throughput mass spectrometry assay (conversion of PGH2 to PGD2). The assay is classed as biochemical. The note with it: 10 nM H-PGDS, PGH2 formed in situ by COX-2 from arachidonic acid; read-out: Potency Range (mean pIC50) (converted). On the procedure: H-PGDS RapidFire™ High Throughput Mass Spectrometry Assay
The H-PGDS RapidFire™ mass spectrometric assay monitors conversion of prostaglandin H2 (PGH2) to prostaglandin D2 (PGD2) by haematopoietic prostaglandin D synthase (H-PGDS). In the assay format described here, the substrate (PGH2) is formed in situ by the action of cyclooxygenase-2 on arachidonic acid. This first step is set up to be fast, and generates a burst of PGH2 at ˜10 μM. The PGH2 is then further converted to PGD2 by the H-PGDS enzyme. […] Plates are then read on the RapidFire™ high throughput solid phase extraction system (Agilent) which incorporates a solid phase extraction step coupled to a triple quadrupole mass spectrometer (AB SCIEX). Relative levels of PGD2 and PGF2α, which acts as a surrogate for substrate, are measured and a percent conversion calculated.
Expression and Purification of H-PGDS Protein
Full length human H-PGDS cDNA (Invitrogen Ultimate ORF 10H13026) was amplified by PCR with the addition of a 5′ 6-His tag and TEV protease cleavage site. The PCR product was digested with Ndel and Xhol and ligated into pET22b+ (Merck Novagen®). Expression was carried out in E. coli strain BL21 (DE3*) using auto-induction Overnight Express™ Instant TB medium (Merck Novagen®) supplemented with 1% glycerol. The culture was first grown at 37° C. and the temperature was reduced to 25° C. when OD600 reached 2.0. Cells were harvested by centrifugation after a further 18 hr. 10 g of E. coli cell pellet was suspended to a total volume of 80 mL in lysis buffer (20 mM Tris-Cl pH 7.5, 300 mM NaCl, 20 mM imidazole, 5 mM β-mercaptoethanol, 10% glycerol). 1 mg/mL protease inhibitors (Protease Inhibitor Cocktail Set III, Merck Calbiochem®) and 1 mg/mL lysozyme were added to the cell suspension. The suspension was then sonicated for 5 min (UltraSonic Processor VCX 750, Cole-Parmer Instrument Co.) with a micro probe (50% amplitude, 10 sec on/off) and then centrifuged at 100,000 g for 90 min (at 4° C.). The supernatant was loaded onto a Ni-NTA HiTrap column (5 mL, GE Healthcare, pre-equilibrated in lysis buffer). The column was washed with 10 column volumes of lysis buffer and eluted with lysis buffer containing 500 mM imidazole. The pooled protein peak fractions were concentrated using a 10 kDa centrifugal filter at 3500 g and 4° C. (Amicon Ultra-15 centrifugal filter unit with Ultracel-10 membrane from Millipore). Further purification of the concentrated protein was carried out using gel filtration chromatography on a HiLoad 26/600 Superdex 75 preparative grade column (GE Healthcare Life Sciences) using 50 mM Tris pH 7.5, 50 mM NaCl, 1 mM dithiothreitol, 1 mM MgCl2. Fractions containing the protein were pooled, concentrated as described above, and stored at −80° C.
Expression and Purification of Cyclooxygenase-2 (COX-2) Protein
The full length human COX-2 gene (accession number L15326) was amplified by PCR to generate an EcoRI-HindIII fragment containing an in-frame FLAG tag. This was subcloned into pFastBac 1 (Invitrogen). The COX2 FLAG plasmid was recombined into the baculovirus genome according to the BAC-to-BAC protocol described by Invitrogen. Transfection into Spodoptera frugiperda (Sf9) insect cells was performed using Cellfectin (Invitrogen), according to the manufacturer's protocol. […] Cells were harvested using a continuous feed centrifuge run at 2500 g at a rate of approximately 2 L/min with cooling. The resultant cell slurry was re-centrifuged in pots (2500 g, 20 min, 4° C.) and the cell paste was stored at −80° C. […] The suspension was sonicated in 500 mL batches for 8×5 seconds at 10 u amplitude with the medium tip of an MSE probe sonicator and subsequently incubated at 4° C. for 90 min with gentle stirring. The lysate was centrifuged at 12000 rpm for 45 min at 4° C. in a Sorvall SLA1500 rotor. The supernatant (1400 mL) was added to 420 mL of 20 mM Tris-Cl pH 7.4, 150 mM NaCl, 0.1 mM EDTA to reduce the concentration of n-octyl-6-D-glucopyranoside to 1% w/v.

Where only a bound is given, the exact number is not on record here.

T1 sequence (O60760 whole entry): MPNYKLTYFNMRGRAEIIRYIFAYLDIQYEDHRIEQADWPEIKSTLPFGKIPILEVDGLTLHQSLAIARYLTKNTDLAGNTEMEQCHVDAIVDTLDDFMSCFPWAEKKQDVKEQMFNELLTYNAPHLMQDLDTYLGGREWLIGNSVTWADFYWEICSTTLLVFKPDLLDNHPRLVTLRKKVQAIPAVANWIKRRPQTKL

For `O=C(NC1CCc2ccccc21)[C@H]1C[C@H](Oc2cccc3cccnc23)C1` (mixture of isomers) [Example 212, Racemic (trans)-N-(2,3-Dihydro-1H-inden-1-yl)-3-(quinolin-8-yloxy)cyclobutanecarboxamide], the IC50 is 0.01 to 0.0794 µM.

As to `CC1C(Oc2cc(F)cc3scnc23)CN1C(=O)N[C@H]1CC[C@H](C(C)(C)O)CC1` (mixture of isomers) [Example 236, Racemic 3-((6-Fluorobenzo[d]thiazol-4-yl)oxy)-N-((trans)-4-(2-hydroxypropan-2-yl)cyclohexyl)-2-methylazetidine-1-carboxamide], the IC50 is 0.01 to 0.0794 µM.

Turning to `CC1C(Oc2cccc3scnc23)CN1C(=O)N[C@H]1CC[C@H](C(C)(C)O)CC1` (mixture of isomers) [Example 240, Racemic 3-(Benzo[d]thiazol-4-yloxy)-N-((trans)-4-(2-hydroxypropan-2-yl)cyclohexyl)-2-methylazetidine-1-carboxamide], the IC50 was 0.01 to 0.0794 µM.

Turning to `O=C(NC1CCS(=O)(=O)C1)[C@H]1C[C@H](Oc2cccc3scnc23)C1` (mixture of isomers) [Example 254, Racemic (trans)-3-(Benzo[d]thiazol-4-yloxy)-N-(1,1-dioxidotetrahydrothiophen-3-yl)cyclobutanecarboxamide], the IC50 is 0.1 to 1 µM.

For the molecule `CC(C)(O)[C@H]1CC[C@H](NC(=O)N2CC(C(F)c3cccc4cccnc34)C2)CC1` (mixture of isomers) [Example 256, Racemic 3-(Fluoro(quinolin-8-yl)methyl)-N-((trans)-4-(2-hydroxypropan-2-yl)cyclohexyl)azetidine-1-carboxamide], the IC50 was 0.1 to 1 µM.

For `O=C(NC1CCc2ccccc21)[C@H]1C[C@H](Oc2cccc(Cl)c2)C1` (mixture of isomers) [Example 286, Racemic (trans)-3-(3-Chlorophenoxy)-N-(2,3-dihydro-1H-inden-1-yl)cyclobutanecarboxamide], the IC50 was 0.01 to 0.0794 µM.

As to `CC(C)(O)[C@H]1CC[C@H](NC(=O)N2CC(Oc3cc(F)ccc3OC(F)F)C2)CC1` [Example 1, 3-(2-(Difluoromethoxy)-5-fluorophenoxy)-N-((trans)-4-(2-hydroxypropan-2-yl)cyclohexyl)azetidine-1-carboxamide], the IC50 is 0.1 to 1 µM.

Consider `CCCCn1nnnc1NC(=O)[C@H]1C[C@H](Oc2cc(F)ccc2OC(F)F)C1` [Example 2, (trans)-N-(1-Butyl-1H-tetrazol-5-yl)-3-(2-(difluoromethoxy)-5-fluorophenoxy)cyclobutanecarboxamide], for which the IC50 was 0.01 to 0.0794 µM.

As for `Cn1nnnc1NC(=O)[C@H]1C[C@H](Oc2cc(F)ccc2OC(F)F)C1` [Example 3, (trans)-3-(2-(Difluoromethoxy)-5-fluorophenoxy)-N-(1-methyl-1H-tetrazol-5-yl)cyclobutanecarboxamide], the IC50 was 0.1 to 1 µM.

`O=C(NC1CN(c2ccnc(Cl)n2)C1)[C@H]1C[C@H](Oc2cc(F)ccc2OC(F)F)C1` [Example 6, (trans)-N-(1-(2-Chloropyrimidin-4-yl)azetidin-3-yl)-3-(2-(difluoromethoxy)-5-fluorophenoxy)cyclobutanecarboxamide]: the IC50 is 0.01 to 0.0794 µM.

In the case of `O=C(NC1CN(c2nccc(Cl)n2)C1)[C@H]1C[C@H](Oc2cc(F)ccc2OC(F)F)C1` [Example 7, (trans)-N-(1-(4-Chloropyrimidin-2-yl)azetidin-3-yl)-3-(2-(difluoromethoxy)-5-fluorophenoxy)cyclobutanecarboxamide], the IC50 is below 0.01 µM.

On to `O=C(NC1CN(c2ncc(F)cn2)C1)[C@H]1C[C@H](Oc2cc(F)ccc2OC(F)F)C1` [Example 8, (trans)-3-(2-(Difluoromethoxy)-5-fluorophenoxy)-N-(1-(5-fluoropyrimidin-2-yl)azetidin-3-yl)cyclobutanecarboxamide], for which the IC50 is 0.01 to 0.0794 µM.

Take `O=C(N[C@H]1CC[C@H](Nc2ncccn2)CC1)[C@H]1C[C@H](Oc2cc(F)ccc2OC(F)F)C1` [Example 10, (trans)-3-(2-(Difluoromethoxy)-5-fluorophenoxy)-N-((trans)-4-(pyrimidin-2-ylamino)cyclohexyl)cyclobutanecarboxamide]: the IC50 was 0.01 to 0.0794 µM.

Take `O=C(Nc1ncc(CO)s1)[C@H]1C[C@H](Oc2cc(F)ccc2OC(F)F)C1` [Example 12, (trans)-3-(2-(Difluoromethoxy)-5-fluorophenoxy)-N-(5-(hydroxymethyl)thiazol-2-yl)cyclobutanecarboxamide]: the IC50 is 0.01 to 0.0794 µM.

As to `O=C(Nc1nc(COC(=O)[C@H]2C[C@H](Oc3cc(F)ccc3OC(F)F)C2)cs1)[C@H]1C[C@H](Oc2cc(F)ccc2OC(F)F)C1` [Example 13, (trans)-(2-((trans)-3-(2-(Difluoromethoxy)-5-fluorophenoxy)cyclobutanecarboxamido)thiazol-4-yl)methyl 3-(2-(difluoromethoxy)-5-fluorophenoxy)cyclobutanecarboxylate], the IC50 is 0.1 to 1 µM.

In the case of `O=C(NC1CN(CC(F)F)C1)[C@H]1C[C@H](Oc2cc(F)ccc2OC(F)F)C1` [Example 15, (trans)-N-(1-(2,2-Difluoroethyl)azetidin-3-yl)-3-(2-(difluoromethoxy)-5-fluorophenoxy)cyclobutanecarboxamide], the IC50 is 0.1 to 1 µM.

In the case of `CC(C)(C)c1nnc(NC(=O)[C@H]2C[C@H](Oc3cc(F)ccc3OC(F)F)C2)o1` [Example 16, (trans)-N-(5-(tert-Butyl)-1,3,4-oxadiazol-2-yl)-3-(2-(difluoromethoxy)-5-fluorophenoxy)cyclobutanecarboxamide], the IC50 was 0.01 to 0.0794 µM.

For the molecule `O=C(NC1CN(c2ncccn2)C1)[C@H]1C[C@H](Oc2cc(F)ccc2OC(F)F)C1` [Example 17, (trans)-3-(2-(Difluoromethoxy)-5-fluorophenoxy)-N-(1-(pyrimidin-2-yl)azetidin-3-yl)cyclobutanecarboxamide], the IC50 is 0.01 to 0.0794 µM.

In the case of `O=C(NC1CN(c2ccccn2)C1)[C@H]1C[C@H](Oc2cc(F)ccc2OC(F)F)C1` [Example 18, (trans)-3-(2-(Difluoromethoxy)-5-fluorophenoxy)-N-(1-(pyridin-2-yl)azetidin-3-yl)cyclobutanecarboxamide], the IC50 was 0.01 to 0.0794 µM.

Regarding `O=C(N[C@H]1CC[C@H](N2CC(F)(F)C2)CC1)[C@H]1C[C@H](Oc2cc(F)ccc2OC(F)F)C1` [Example 19, (trans)-N-((trans)-4-(3,3-Difluoroazetidin-1-yl)cyclohexyl)-3-(2-(difluoromethoxy)-5-fluorophenoxy)cyclobutanecarboxamide], the IC50 was 0.01 to 0.0794 µM.

Regarding `O=C(N[C@H]1CC[C@H](N[C@@H](CO)C(F)(F)F)CC1)[C@H]1C[C@H](Oc2cc(F)ccc2OC(F)F)C1` [Example 20, (trans)-3-(2-(Difluoromethoxy)-5-fluorophenoxy)-N-((trans)-4-(((S)-1,1,1-trifluoro-3-hydroxypropan-2-yl)amino)cyclohexyl)cyclobutanecarboxamide], the IC50 was 0.01 to 0.0794 µM.

For `O=C(Nc1cncnc1)[C@H]1C[C@H](Oc2cc(F)ccc2OC(F)F)C1` [Example 22, (trans)-3-(2-(Difluoromethoxy)-5-fluorophenoxy)-N-(pyrimidin-5-yl)cyclobutanecarboxamide], the IC50 is 0.1 to 1 µM.
